Starred links: 1 amine or outer side, 2 acyl side, 3 side chain; linkers in the order of their positions; H or OH if unused. Positions of bridges follow the written chain, without caps; N, C: chain ends. Non-standard residues stand in square brackets, D forms with d. Residues, ends and D or L forms follow the SMILES beside them. *: point of attachment. Orn(4R-OH,5R-OCH2CH2NMe3+) = C[N+](C)(C)CCO[C@@H](N[*:3])[C@H](O)C[C@H](N[*:1])C(=O)[*:2]; hTyr(3S-OH,4S-OH,3'-OSO3H) = N[C@H](C(=O)O)[C@H](O)[C@@H](O)c1ccc(O)c(OS(=O)(=O)O)c1; pTerphenylCO(4''-OnC5H11) = CCCCCOc1ccc(-c2ccc(-c3ccc(C(=O)*)cc3)cc2)cc1; Orn(4R-OH,5R-OH) = O=C([C@H](C[C@@H](O)[C@@H](O)N[*:3])N[*:1])[*:2]; hTyr(3S-OH,4S-OH) = N[C@H](C(=O)O)[C@H](O)[C@@H](O)c1ccc(O)cc1; Pro(3S-OH,4S-Me) = C[C@H]1CN[C@H](C(=O)O)[C@H]1O; X1 = CCCCCOc1ccc(-c2cc(-c3ccc(C(=O)*)cc3)no2)cc1; Gln(3R-OH) = NC(=O)C[C@@H](O)[C@H](N)C(=O)O; Hyp = O=C(O)[C@@H]1C[C@@H](O)CN1
Columns and labels:
[1] = tested on: A. fumigatus RG101; format: cell-based, Aspergillus fumigatus; conditions: for Growth phenotype of RG101 with drug alone: 1 μg/ml drug, RPMI 1640, absence of CAS; for Growth phenotype of RG101 with drug alone / Drug susceptibility testing result, RG101: 24 h; for Drug susceptibility testing result, RG101: Fig 1B
Experimental: The following drugs (supplier) were tested: caspofungin (Merck & Co., Inc.), micafungin (Astellas Pharma US, Inc.), anidulafungin (Pfizer Inc.), itraconazole (Sigma-Aldrich), voriconazole (Pfizer Inc.), and amphotericin B (Sigma-Aldrich). In addition, rezafungin and ibrexafungerp were obtained from Cidara Therapeutics and Scynexis Inc., respectively.

[2] = tested on: reactive oxygen species (ROS) in A. fumigatus RG101; experiment: ROS production, DCFDA fluorescence assay; format: cell-based, Aspergillus fumigatus; conditions: RG101
Experimental: ROS production in mycelia was measured using a protocol previously described by Blatzer et al. ([51]) with a few changes. Suspensions of 10^4 spores/ml of ATCC 13073 and RG101 were grown in static culture in complete supplement mixture (CSM) medium for 16 h in a 96-well microplate at 37°C. After incubation, the mycelia were washed once with CSM, 10 μM 2′,7′–dichlorofluorescin diacetate (DCFDA) dye was added, and cells were incubated in the dark at 37°C for 30 min. Cells were then washed three times with phosphate-buffered saline (PBS), and a final concentration of 1 μg/ml of each echinocandin in CSM medium was added to different wells. Fluorescence intensity (excitation at 485 nm and emission at 530 nm) was measured for 1 h in a microplate reader (Tecan Infinite M200 Pro). Mycelia stained with DCFDA without any drug were used as a control.

[3] = tested on: A. fumigatus S679P (fks1 Ser-679-Pro mutant); experiment: Antifungal susceptibility testing (MEC, CLSI M38-A2); format: cell-based, Aspergillus fumigatus
Experimental: (§1) Minimum effective concentrations (MECs) for A. fumigatus strains were determined according to CLSI document M38-A2 ([48]) and defined as the lowest drug concentration that led to the growth of small, rounded, compact hyphal forms compared to the hyphal growth seen in the drug-free growth control wells. The following drugs (supplier) were tested: caspofungin (Merck & Co., Inc.), micafungin (Astellas Pharma US, Inc.), anidulafungin (Pfizer Inc.), itraconazole (Sigma-Aldrich), voriconazole (Pfizer Inc.), and amphotericin B (Sigma-Aldrich). In addition, rezafungin and ibrexafungerp were obtained from Cidara Therapeutics and Scynexis Inc., respectively.

[4] = tested on: A. fumigatus ATCC 13073; experiment: as above; format: cell-based, Aspergillus fumigatus; conditions: for Drug susceptibility testing result, ATCC 13073: 24 h, Fig 1B
Experimental: as §1

[5] = target: β-(1,3)-D-glucan synthase of RG101 (Aspergillus fumigatus, UniProt Q4WLT4); experiment: Glucan synthase kinetic inhibition assay, enzyme from RG101; format: biochemical; conditions: enzyme from RG101 grown at 4 μg/ml CAS
Experimental: ATCC 13073 or RG101 was grown in liquid YPD medium at 37°C for 16 h. Partially purified glucan synthase was isolated by the product entrapment method, as previously described ([21]). Sensitivity to echinocandin drugs was measured by glucan synthase assay, using a 96-well multiscreen high-throughput screen filtration system (Millipore Corporation, Bedford, MA) in a final volume of 100 μl. Inhibition of the enzyme by the drug was analyzed after incubation of the enzyme with a radioactive substrate over a broad range of concentrations (0 to 10,000 ng/ml) of echinocandins for 1 h at room temperature. Radioactivity from the enzyme product, β-(1,3)-D-glucan, was measured. Inhibition profiles were determined using a sigmoidal response curve fitting algorithm with GraphPad Prism software (v 7.04).
To study the effect of lipids on the enzyme, dihydrosphingosine, phytosphingosine, or phytoceramide C2 (Sigma-Aldrich D6783, P2795, and C8105, respectively) was added directly to the assay mixture and coincubated with an echinocandin for 1 h at room temperature.

[6] = tested on: Aspergillus fumigatus clinical isolate 32315; experiment: Antifungal susceptibility testing (MEC, CLSI M38-A2); format: cell-based; conditions: clinical isolate 32315, fks1 WT
Experimental: as §1

[7] = tested on: Aspergillus fumigatus clinical isolate 117; experiment: as above; format: cell-based; conditions: clinical isolate 117, fks1 WT
Experimental: as §1

[8] = tested on: Aspergillus fumigatus clinical isolate 68284B; experiment: as above; format: cell-based; conditions: fks1 WT
Experimental: as §1

[9] = tested on: Aspergillus fumigatus clinical isolate 32458; experiment: as above; format: cell-based; conditions: clinical isolate 32458, fks1 WT
Experimental: as §1

[10] = tested on: Aspergillus fumigatus clinical isolate 2770; experiment: as above; format: cell-based; conditions: clinical isolate 2770, fks1 WT
Experimental: as §1

[11] = tested on: A. fumigatus RG101; experiment: Acute pulmonary aspergillosis model in neutropenic DBA/2 mice, lung fungal burden by qPCR; format: in vivo, Aspergillus fumigatus
Experimental: Resistance of RG101 to CAS in vivo was tested in an acute pulmonary aspergillosis model. Thirty inbred DBA/2 mice were rendered neutropenic and infected with 1 × 10^6 RG101 conidia intratracheally. The mice were then treated with CAS (5 mg/kg of body weight), MFG (5 mg/kg), or vehicle daily for 5 days, and lung burdens were determined using quantitative PCR (qPCR). Details of the experiment are provided in Text S1 in the supplemental material.
All animal experiments performed were approved by the Rutgers University Institutional Animal Care and Use Committee. Thirty female DBA/2 mice [The Jackson Laboratory, Bar Harbor, ME] were used in the experiment. The mice were housed in cages equipped with HEPA filters and were allowed free access to food and water. To establish neutropenia, mice were immunosuppressed with cyclophosphamide on days -4 (150 mg/kg), -1 and +2 (100 mg/kg) intraperitoneally (ip) and hydrocortisone on day -1 (200 mg/kg) via subcutaneous injection (sc). The animals were given prophylaxis sc ceftazidime (50 mg/kg) on all days to prevent secondary bacterial infections. A. fumigatus RG101 was streaked out from a frozen glycerol stock and cultured on Potato dextrose agar (PDA) slant for 2 days. The spores were harvested in phosphate-buffered saline (PBS) with 0.05% (v/v) Tween 20 and counted in a hemocytometer. The mice were briefly anesthetized IP Ketamine (65 mg/kg)/Xylazine (5 mg/kg) and infected with 1×10^6 spores of RG101 in 25 µL volume via intratracheal instillation. The 30 RG101 infected mice were randomized into following treatment arms for IP treatment: vehicle, CAS (5 mg/kg), and MFG (5 mg/kg). The first treatment was given at 3 h post infection (PI) and continued daily treatments were administered. On day 5 PI, mice were humanely euthanized via CO2 narcosis. Lungs were excised and homogenized in 1 ml of sterile PBS using a 2 ml tube containing ceramic spheres by MP Biomedicals (116913500). Tissue was then homogenized in 20 s bursts in a mini bead beater (MP FastPrep-24) followed by cooling on ice. DNA was then isolated from an aliquot of the lung homogenate (100 μl) using the QIAamp DNA Mini Kit by Qiagen (51304) and analyzed by real-time quantitative PCR (qPCR) using primers specific for A. fumigatus 18S rRNA genes (Wiederhold et al 2004).

[12] = thiourea 15 mM with CAS 1 μg/ml

β-(1,3)-D-glucan synthase of RG101, sequence (Q4WLT4 1-1904): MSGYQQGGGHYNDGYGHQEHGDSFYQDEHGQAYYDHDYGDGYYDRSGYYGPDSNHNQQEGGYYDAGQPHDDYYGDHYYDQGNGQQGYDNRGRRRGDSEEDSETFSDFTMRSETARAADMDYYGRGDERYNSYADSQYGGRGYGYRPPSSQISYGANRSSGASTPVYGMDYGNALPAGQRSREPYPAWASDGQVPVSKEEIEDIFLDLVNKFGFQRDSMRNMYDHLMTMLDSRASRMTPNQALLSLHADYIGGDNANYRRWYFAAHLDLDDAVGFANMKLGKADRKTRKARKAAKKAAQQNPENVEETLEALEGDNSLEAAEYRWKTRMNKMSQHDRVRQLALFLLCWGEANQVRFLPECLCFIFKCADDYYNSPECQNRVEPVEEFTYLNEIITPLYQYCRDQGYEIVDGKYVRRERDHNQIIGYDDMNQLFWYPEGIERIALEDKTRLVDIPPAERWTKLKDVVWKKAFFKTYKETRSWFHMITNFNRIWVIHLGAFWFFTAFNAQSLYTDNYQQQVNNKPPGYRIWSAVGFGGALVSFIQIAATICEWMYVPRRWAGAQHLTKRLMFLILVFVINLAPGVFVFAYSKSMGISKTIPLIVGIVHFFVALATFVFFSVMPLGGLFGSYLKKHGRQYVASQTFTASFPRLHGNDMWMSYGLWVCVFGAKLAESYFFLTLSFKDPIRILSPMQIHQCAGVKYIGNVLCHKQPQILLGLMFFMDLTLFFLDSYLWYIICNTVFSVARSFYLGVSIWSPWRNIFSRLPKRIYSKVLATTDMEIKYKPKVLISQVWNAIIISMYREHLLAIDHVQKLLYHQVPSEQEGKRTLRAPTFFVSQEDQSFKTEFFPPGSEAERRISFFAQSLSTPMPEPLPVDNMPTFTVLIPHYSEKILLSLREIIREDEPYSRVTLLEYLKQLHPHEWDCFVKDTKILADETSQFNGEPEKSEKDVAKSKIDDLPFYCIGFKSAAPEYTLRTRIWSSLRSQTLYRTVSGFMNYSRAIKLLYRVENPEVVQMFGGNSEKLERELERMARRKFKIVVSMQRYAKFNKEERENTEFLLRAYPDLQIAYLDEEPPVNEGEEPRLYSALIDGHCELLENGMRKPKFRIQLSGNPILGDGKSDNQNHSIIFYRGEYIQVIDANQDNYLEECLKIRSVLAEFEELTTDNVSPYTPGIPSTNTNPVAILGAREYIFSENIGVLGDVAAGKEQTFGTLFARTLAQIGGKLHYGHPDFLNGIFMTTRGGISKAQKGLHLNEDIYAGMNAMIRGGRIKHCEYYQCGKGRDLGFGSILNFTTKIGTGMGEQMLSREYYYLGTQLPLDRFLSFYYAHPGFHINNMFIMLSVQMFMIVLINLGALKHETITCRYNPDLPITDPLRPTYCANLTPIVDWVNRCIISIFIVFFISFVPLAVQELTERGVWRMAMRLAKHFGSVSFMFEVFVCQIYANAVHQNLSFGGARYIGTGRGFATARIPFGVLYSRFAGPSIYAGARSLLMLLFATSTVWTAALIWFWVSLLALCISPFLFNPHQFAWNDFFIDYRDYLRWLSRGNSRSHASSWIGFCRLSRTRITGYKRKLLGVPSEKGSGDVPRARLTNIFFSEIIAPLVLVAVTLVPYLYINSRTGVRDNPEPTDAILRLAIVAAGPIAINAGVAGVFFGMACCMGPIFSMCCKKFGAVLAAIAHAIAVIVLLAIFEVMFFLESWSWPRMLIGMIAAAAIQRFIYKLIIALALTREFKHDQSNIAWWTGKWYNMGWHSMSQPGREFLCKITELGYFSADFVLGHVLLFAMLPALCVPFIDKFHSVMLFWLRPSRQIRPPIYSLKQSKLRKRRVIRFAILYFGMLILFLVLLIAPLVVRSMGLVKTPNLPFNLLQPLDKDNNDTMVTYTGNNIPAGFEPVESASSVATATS

| Compound | Growth phenotype of RG101 with drug in combination with CAS [1] | Growth phenotype of RG101 with drug alone [1] | Drug susceptibility testing result, RG101 [1] | Drug susceptibility testing result, ATCC 13073 [4] | other results |
| --- | --- | --- | --- | --- | --- |
| NC(N)=S [thiourea] | – | – | – | – | Effect on CAS-induced breakthrough resistance phenotype of RG101 [1, 12]: reversed; Reduction of CAS-induced ROS levels ([2]; 15 mM thiourea): 4 fold; Effect on CAS resistance of S679P [3, 12]: no effect; Effect on CAS phenotype of ATCC 13073 [4, 12]: no change |
| CC(C)[C@@H](C)[C@@]1(C)CC[C@]2(C)[C@H]3CC[C@@H]4[C@@]5(COC[C@@]4(C)[C@@H](OC[C@](C)(N)C(C)(C)C)[C@H](n4ncnc4-c4ccncc4)C5)C3=CC[C@@]2(C)[C@@H]1C(=O)O [IFG, ibrexafungerp] | cross-resistance | sensitive | – | – | – |
| C[C@@H]1[C@H](O)[C@@H](C)/C=C/C=C/C=C/C=C/C=C/C=C/C=C/[C@H](O[C@@H]2O[C@H](C)[C@@H](O)[C@H](N)[C@@H]2O)C[C@@H]2O[C@](O)(C[C@@H](O)C[C@@H](O)[C@H](O)CC[C@@H](O)C[C@@H](O)CC(=O)O[C@H]1C)C[C@H](O)[C@H]2C(=O)O [Amphotericin B, amphotericin B] | – | – | 0.5 µg/mL | 0.5 µg/mL | – |
| C[C@@H](c1ncncc1F)[C@](O)(Cn1cncn1)c1ccc(F)cc1F [Voriconazole, voriconazole] | – | – | 0.12 µg/mL | 0.12 µg/mL | – |
| CCCCCOc1ccc(-c2ccc(-c3ccc(C(=O)N[C@H]4C[C@@H](O)[C@@H](OCC[N+](C)(C)C)NC(=O)[C@@H]5[C@@H](O)[C@@H](C)CN5C(=O)[C@H]([C@@H](C)O)NC(=O)[C@H]([C@H](O)[C@@H](O)c5ccc(O)cc5)NC(=O)[C@@H]5C[C@@H](O)CN5C(=O)[C@H]([C@@H](C)O)NC4=O)cc3)cc2)cc1 [RZF, rezafungin] ({pTerphenylCO(4''-OnC5H11)}-[Orn(4R-OH,5R-OCH2CH2NMe3+)]T[Hyp][hTyr(3S-OH,4S-OH)]T[Pro(3S-OH,4S-Me)]; lactam 1-C) | cross-resistance | sensitive | – | – | – |
| CCCCCOc1ccc(-c2ccc(-c3ccc(C(=O)N[C@H]4C[C@@H](O)[C@@H](O)NC(=O)[C@@H]5[C@@H](O)[C@@H](C)CN5C(=O)[C@H]([C@@H](C)O)NC(=O)[C@H]([C@H](O)[C@@H](O)c5ccc(O)cc5)NC(=O)[C@@H]5C[C@@H](O)CN5C(=O)[C@H]([C@@H](C)O)NC4=O)cc3)cc2)cc1 [ANF, anidulafungin] ({pTerphenylCO(4''-OnC5H11)}-[Orn(4R-OH,5R-OH)]T[Hyp][hTyr(3S-OH,4S-OH)]T[Pro(3S-OH,4S-Me)]; lactam 1-C) | cross-resistance | sensitive | 0.03 µg/mL | 0.03 µg/mL | – |
| CCCCCOc1ccc(-c2cc(-c3ccc(C(=O)N[C@H]4C[C@@H](O)[C@@H](O)NC(=O)[C@@H]5[C@@H](O)[C@@H](C)CN5C(=O)[C@H]([C@H](O)CC(N)=O)NC(=O)[C@H]([C@H](O)[C@@H](O)c5ccc(O)c(OS(=O)(=O)O)c5)NC(=O)[C@@H]5C[C@@H](O)CN5C(=O)[C@H]([C@@H](C)O)NC4=O)cc3)no2)cc1 [MFG, micafungin] (X1-[Orn(4R-OH,5R-OH)]T[Hyp][hTyr(3S-OH,4S-OH,3'-OSO3H)][Gln(3R-OH)][Pro(3S-OH,4S-Me)]; lactam 1-C) | cross-resistance | sensitive | 0.03 µg/mL | 0.03 µg/mL | IC50 [5]: > 7.87 µM; MEC (minimum effective concentration) [6]: 2 µg/mL; MEC (minimum effective concentration) [7]: 4 µg/mL; MEC (minimum effective concentration) [8]: 4 µg/mL; MEC (minimum effective concentration) [9]: 2 µg/mL; MEC (minimum effective concentration) [10]: 2 µg/mL; MEC (minimum effective concentration) ([3]; S679P, fks1 Ser-679-Pro): 16 µg/mL; MEC (minimum effective concentration) ([4]; ATCC 13073, fks1 WT): 0.03 µg/mL; Decrease in lung burden versus vehicle-treated group ([11]; RG101, 5 mg/kg daily for 5 days): ~5 fold; Average fungal lung burden ([11]; RG101 intratracheal, 5 mg/kg daily IP for 5 days, qPCR): 5.2 ng fungal DNA per lung |
| CCCCCC[C@H]1C(=O)O[C@H](C)[C@H](NC(=O)c2cccc(NC=O)c2O)C(=O)O[C@@H](C)[C@@H]1OC(=O)CC(C)C [antimycin A] | – | – | – | – | Decrease of CAS-induced ROS production ([2]; 0.5 μg/ml antimycin A): over 2 fold |
| CCC(C)n1ncn(-c2ccc(N3CCN(c4ccc(OCC5COC(Cn6cncn6)(c6ccc(Cl)cc6Cl)O5)cc4)CC3)cc2)c1=O (stereo not drawn) [Itraconazole, itraconazole] | – | – | 0.5 µg/mL | 0.5 µg/mL | – |
